Assay results as given in patent US20070149408A1, “METHOD FOR REDUCING NITROSAMINES IN TOBACCO” (UNIVERSITY OF KENTUCKY RESEARCH FOUNDATION, priority 2005, published 2007).

Experiments:
whole tobacco leaf [1] = assay: Total TSNA in cured tobacco, ferulic acid, ethanol and surfactant sprayed two days before harvest (Example 4); conditions: ferulic acid + ethanol + DE FAC 820, versus untreated (Table 4)
Method: Tobacco plants were treated by spraying them in the field with an aqueous solution comprising 0.25% wt. by vol. of ferulic acid, 5 gallons ethanol (95%), 250 gallons water and 0.25% by vol. of a non-ionic surfactant (DE FAC 820). This gave a 2% ethanol solution. Fifty (50) gallons of aqueous solution was applied per acre for the treated plants.
Treated and non-treated tobacco was harvested and cured in a conventional dark fire tobacco barn with manual vents for aeration for 6 weeks, one week of natural ventilation followed by five weeks of wood fire curing in a conventional manner. The curing was conducted in a conventional curing barn as is typically found in the dark tobacco production regions of Kentucky and Tennessee. Both the treated and untreated tobacco were the same variety and harvested at the same time.
Random leaves were removed from the cured treated and cured untreated tobacco and TSNA was measured in accordance with Example 1.

whole tobacco leaf [2] = assay: TSNA in cured tobacco, ferulic acid added to the smoke during fire curing (Example 6); conditions: ferulic acid in wood smoke, versus untreated (Table 6)
Source text: In a conventional dark fire tobacco barn, wood lumber was laid on the floor of the barn and sawdust was spread on top of the wood. The lumber was set on fire and the sawdust smoldered and generated wood smoke. Ferulic acid, solid granular, from a conventional source, was sprinkled over the top of the sawdust at the start of the fire curing process and was applied in an amount of one pound per acre of tobacco in the barn, about 5000 tobacco plants. The fire curing started one or two days after the tobacco was harvested and hung in the barn. The ferulic acid lasted about one week on the sawdust during the fire curing.
The fire curing was conducted for a total of 40 days.
After curing, random leaves were collected from the treated tobacco and from the untreated tobacco. Both treated and untreated tobacco were of the same variety and came from two different barns. The untreated tobacco came from a different barn but was fire cured in the same manner as the treated tobacco except for the ferulic acid treatment.

SMILES: COc1cc(C=CC(=O)O)ccc1O [ferulic acid, 4-hydroxy-3-methoxy cinnamic acid]
- reduction in TSNA (whole tobacco leaf [1]): 85%
- reduction in TSNA (whole tobacco leaf [2]): 35%
